Reference: patent publication US20070059785A1, “Biomarkers in cancer” (SMITHKLINE BEECHAM CORPORATION, priority 2003, published 2007)
Entries after “also recorded” stand apart in the source; their conditions may differ.

Assays:
AKT = conditions: S1 cells; not reversed by EGF; data of PCT/US03/12739; cited from earlier work
Hb4a cells = test: Hb4a cell growth, viable cell count by trypan blue exclusion; assay type: cell-based; conditions: Homo sapiens, 72 h, serum-free, three independent experiments, read-out: inhibition of cell growth compared with vehicle treated controls
Procedure: Exponentially growing Hb4a cells were cultured in 35 mm petri dishes with serum-free medium containing 1.5% BSA. […] Viable cells were counted after 72 h using trypan blue exclusion.

Erk1/2 [1] = test: Clinical tumor biopsies, localization of total Erk1/2 by IHC; assay type: in vivo, human; conditions: patient 361, Day 21; baseline exclusively intra-nuclear; data not shown
Excerpt: Upon activation, p-Erk1/2 relocates to the nucleus where it regulates transcription of a variety of genes involved in tumor growth, adhesion, and angiogenesis.

Heregulin = test: Clinical tumor biopsies, heregulin by IHC; conditions: patient 425, inflammatory breast cancer, 1200 mg/d ditosylate salt, day 21 (day 0: 5)
Procedure: (§2) Erk1/2 (1:1200), erbB3 (1:10), heregulin (1:25), and TGFα (1:20) were also immunostained using the BenchMark™ with I-VIEW detection chemistry.
“Heregulin”, a ligand that stimulates erbB3 (HER3) and HER4, was measured by immunohistochemistry and reported in OD.

erbB2 [2] = molecular target: T1, erbB2 (Homo sapiens, UniProt P04626); test: Clinical tumor biopsies, erbB2 p-tyr by IHC; conditions: patient 361, 1200 mg/day, Day 21, data not shown
TGFα = test: Clinical tumor biopsies, TGFα by IHC; conditions: patient 425, inflammatory breast cancer, 1200 mg/d ditosylate salt, day 21 (day 0: 32)
Excerpt: as §2
(§3) All subjects provided written informed consent.
“TGFα” refers to Transforming Growth Factor alpha as measured by immunohistochemistry and reported in OD;

cyclin D1 = test: Clinical tumor biopsies, cyclin D1 by quantitative IHC
Excerpt: as §3
“Cyclin D1” refers to total cyclin D1 present as measured by immunohistochemistry and reported by OD;

HN5 cells = conditions: Rusnak et al.; cited from earlier work
Erk1/2 [3] = test: Western blot of activated Erk1/2 (p-Erk1/2) in S1 cells; assay type: cell-based, human; conditions: 72 h
Excerpt: Proteins were transferred to Immobilon-P or nitrocellulose membranes.
ErbB2 overexpression is associated with the activation of downstream pathways involved in the propagation of proliferative signals such as Erk1/2 MAP kinases (Janes et al., Oncogene, 9:3601(1994)). […].

erbB2 [4] = molecular target: T1, erbB2; test: Tumor xenografts, activated and total erbB2 by quantitative IHC; assay type: in vivo, mice; conditions: HN5 and BT474 xenografts, 200 mg/kg oral once daily
Erk1/2 [5] = test: BT474 tumor xenograft, p-Erk1/2 and total Erk1/2 by Western blot; assay type: in vivo, C.B-17 SCID mice
Procedure: The tumor implant was removed after the final treatment dose. Activated receptor (p-Tyr/ErbB-2) was assessed by IP Western blot and total ErbB-2 steady state protein (ErbB-2), total Erk1/2 and activated Erk1/2 (p-Erk1/2) were assessed by Western blot loading equal amounts of protein from tumor biopsies.
Cell extracts were prepared by homogenization as described for HN5 xenografts.
BT474 tumor xenografts (subcutaneous) were established as described in Materials and Methods. […] Controls were treated with vehicle alone. […] Activated receptor (p-Tyr/ErbB-2) was assessed by IP Western blot and total ErbB-2 steady state protein (ErbB-2), total Erk1/2 and activated Erk1/2 (p-Erk1/2) were assessed by Western blot loading equal amounts of protein from tumor biopsies.

Erk1/2 [6] = test: HN5 tumor xenograft, p-Erk1/2 and total Erk1/2 by Western blot; assay type: in vivo, CD-1 nude mice
Procedure: (§1) Total Erk1/2, total AKT, activated Erk1/2 (p-Erk1/2), and activated AKT (p-AKT) were assessed by Western blot loading equal amounts of protein from tumor biopsies.
HN5 cells were grown in DMEM supplemented with 10% fetal bovine serum, sodium pyruvate and L-glutamine at 37° C. in a 95/5% air/CO2 atmosphere. […] Cells (2×10^6/mouse) in 0.2 ml were injected into the right flank of CD-1 nude mice. Female CD-1 nude mice were acquired from Charles River Laboratories. Mice were maintained in filter-topped cages in an aseptic environment with laminar flow filtered ventilation. […] Tumors were biopsied pre-treatment and 4 hours after the last dose. All animal surgery was conducted under aseptic conditions. For the initial biopsy, mice were anesthetized with isofluorane inhalation. The skin over the tumor was disinfected with iodine. A small hemostat was used to tease away the skin from the tumor, and scissors were used to make a 1 cm incision over the tumor. A scalpel and forceps were used to remove approximately 100 mg of tumor. The tumor was then frozen in liquid nitrogen. Wound clips were used to close the incision. The anesthetized mice were kept warm until they recovered mobility, usually less than 1-2 minutes. For the terminal biopsy, mice were euthanized with CO2 inhalation, and the remainder of the tumor excised. HN5 tumors were placed on dry ice in vials containing cold isopentane, and stored at −80 C prior to study. BT474 tumor samples were fixed for 2-3 hours in phosphatase inhibitor consisting of sodium fluoride and sodium pervanadate in 10% neutral buffered formalin. Following fixative treatment, BT474 samples were washed in water and stored in 70% ethanol prior to study. Cell extracts were prepared by homogenization in RIPA buffer at 4° C.
as §1

T1 sequence (P04626 23-1255): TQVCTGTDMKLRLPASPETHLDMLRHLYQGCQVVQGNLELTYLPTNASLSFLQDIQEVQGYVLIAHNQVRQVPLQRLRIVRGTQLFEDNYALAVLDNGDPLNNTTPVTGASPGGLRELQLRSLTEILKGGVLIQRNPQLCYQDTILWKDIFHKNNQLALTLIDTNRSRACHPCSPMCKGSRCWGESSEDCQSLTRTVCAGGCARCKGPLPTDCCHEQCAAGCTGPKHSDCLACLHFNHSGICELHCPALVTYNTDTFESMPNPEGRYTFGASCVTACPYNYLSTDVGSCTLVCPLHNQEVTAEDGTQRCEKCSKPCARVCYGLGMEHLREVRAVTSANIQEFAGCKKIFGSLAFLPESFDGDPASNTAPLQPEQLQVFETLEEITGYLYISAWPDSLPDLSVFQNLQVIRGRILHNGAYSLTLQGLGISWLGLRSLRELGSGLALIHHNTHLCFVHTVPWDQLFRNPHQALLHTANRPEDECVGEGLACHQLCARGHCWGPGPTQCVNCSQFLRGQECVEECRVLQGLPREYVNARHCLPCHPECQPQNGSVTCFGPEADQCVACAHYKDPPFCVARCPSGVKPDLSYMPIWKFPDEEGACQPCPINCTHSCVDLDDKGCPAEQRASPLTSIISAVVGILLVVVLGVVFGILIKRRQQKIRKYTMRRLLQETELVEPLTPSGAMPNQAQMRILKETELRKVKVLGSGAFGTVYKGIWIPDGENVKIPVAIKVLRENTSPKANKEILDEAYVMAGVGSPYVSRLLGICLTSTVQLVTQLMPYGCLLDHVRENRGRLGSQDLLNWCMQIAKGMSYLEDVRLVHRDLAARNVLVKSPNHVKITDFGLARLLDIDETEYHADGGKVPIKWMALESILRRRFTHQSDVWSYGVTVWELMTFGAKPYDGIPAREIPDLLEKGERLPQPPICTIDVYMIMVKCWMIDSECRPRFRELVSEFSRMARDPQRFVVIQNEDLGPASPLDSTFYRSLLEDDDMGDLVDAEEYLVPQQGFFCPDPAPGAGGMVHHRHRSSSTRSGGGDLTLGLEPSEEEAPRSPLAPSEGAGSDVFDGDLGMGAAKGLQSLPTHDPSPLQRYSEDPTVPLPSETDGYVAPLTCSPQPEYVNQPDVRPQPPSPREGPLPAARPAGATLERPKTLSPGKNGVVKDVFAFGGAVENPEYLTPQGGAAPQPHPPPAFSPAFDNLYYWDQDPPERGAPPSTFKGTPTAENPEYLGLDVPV

CS(=O)(=O)CCNCc1ccc(-c2ccc3ncnc(Nc4ccc(OCc5cccc(F)c5)c(Cl)c4)c3c2)o1 [GW572016, N-{3-Chloro-4-[(3-fluorobenzyl)oxy]phenyl}-6-[5-({[2-(methylsulfonyl)ethyl]amino}methyl)-2-furyl]-4-quinazolinamine]
baseline phosphorylation of AKT (AKT): inhibits
inhibition at 2.5 µM (Hb4a cells): 50%
localization of total Erk1/2 staining (Erk1/2 [1]): almost entirely cytoplasmic
Heregulin (Heregulin): 8 OD
erbB2 p-tyr (erbB2 [2]): had not decreased
TGFa (TGFα): 22 OD
reduction of cyclin D1 protein expression (cyclin D1; patient 361, 1200 mg/day, d 21): 90%
cyclin D1 OD (cyclin D1; patient 361, breast, 1200 mg/d, day 21 (day 0: 31)): 3 OD
cyclin D1 OD (cyclin D1; patient 362, adenocarcinoma unknown primary, 900 mg/d, day 21 (day 0: 26)): 37 OD
cyclin D1 OD (cyclin D1; patient 363, sarcoma, 500 mg/d, day 21 (day 0: 1)): 12 OD
reduction of cyclin D1 expression (cyclin D1; patient 364, 1600 mg/day, 21 days of therapy): 50%
cyclin D1 OD (cyclin D1; patient 364, head & neck, 1600 mg/d, day 21 (day 0: 66)): 33 OD
cyclin D1 OD (cyclin D1; patient 367, adenocarcinoma unknown primary, 650 mg/d, day 21 (day 0: 46)): 39 OD
cyclin D1 OD (cyclin D1; patient 369, head & neck, 1200 mg/d, day 21 (day 0: 39)): 22 OD
cyclin D1 OD (cyclin D1; patient 371, breast, 900 mg/d, day 21 (day 0: 42)): 10 OD
cyclin D1 OD (cyclin D1; patient 372, breast, 1200 mg/d, day 21 (day 0: 20)): 4 OD
Cyclin D1 (cyclin D1; patient 425, inflammatory breast cancer, 1200 mg/d ditosylate salt, day 21 (day 0: 19)): 12 OD
apoptosis (HN5 cells): increased only slightly
total steady state Erk protein (Erk1/2 [3]; 0.5-5 μM): remained unchanged
inhibition at 0.5 µM (Erk1/2 [3]; Homo sapiens, 500 nM, vs vehicle, read-out: inhibition of activated, phosphorylated Erk1/2 (p-Erk)): > 50%
inhibition at 2.5 µM (Erk1/2 [3]; Homo sapiens, 2.5 μM, vs vehicle, read-out: inhibition of activated, phosphorylated Erk1/2 (p-Erk)): > 50%
inhibition at 5 µM (Erk1/2 [3]; Homo sapiens, 5 μM, vs vehicle, read-out: inhibition of activated, phosphorylated Erk1/2 (p-Erk)): 100%
erbB2 total protein (erbB2 [4]): neither EGFR nor erbB2 total protein was affected
activated erbB2 (erbB2 [4]; data not shown): inhibition
total Erk1/2 steady state protein levels (Erk1/2 [5]; 100 mg/kg): without effects
p-Erk1/2 (Erk1/2 [5]; 100 mg/kg oral twice daily, five doses): inhibited; also recorded: decreased
effect on p-Erk1/2 (Erk1/2 [6]; 10 mg/kg, data not shown): little effect
p-Erk1/2 in tumors (Erk1/2 [6]; 30 mg/kg/dose): inhibited
total steady state Erk1/2 protein levels (Erk1/2 [6]; 30 mg/kg/dose): without affecting
